{"source": "patent US6509371B1", "about": "“Compositions containing Bergamottin for increasing the oral bioavailability of pharmaceutical agents” (Warner-Lambert Company, priority 1997, dated 2003)", "key": {"P450 3A4 [1]": {"target": "T1, P450 3A4 (Homo sapiens, UniProt P08684)", "assay": "HPLC analysis of BG-inactivated P450 3A4 on a Poros column", "type": "biochemical", "set-up": "A full-length P450 3A4 cDNA (except for the deletion of codons 3-12 at the 5′-end); made in house; host or cells: E. coli MV1304 (pCW vector)", "description": "S., Hopkins N. E., Alworth D. A., and Hollenberg P. F. […] The eluate was monitored by UV detection at […], 310, and 405 nm simultaneously."}, "P450 1A2": {"target": "T2, P450 1A2 (Homo sapiens, UniProt P05177)", "T2 sequence (P05177 1-516)": "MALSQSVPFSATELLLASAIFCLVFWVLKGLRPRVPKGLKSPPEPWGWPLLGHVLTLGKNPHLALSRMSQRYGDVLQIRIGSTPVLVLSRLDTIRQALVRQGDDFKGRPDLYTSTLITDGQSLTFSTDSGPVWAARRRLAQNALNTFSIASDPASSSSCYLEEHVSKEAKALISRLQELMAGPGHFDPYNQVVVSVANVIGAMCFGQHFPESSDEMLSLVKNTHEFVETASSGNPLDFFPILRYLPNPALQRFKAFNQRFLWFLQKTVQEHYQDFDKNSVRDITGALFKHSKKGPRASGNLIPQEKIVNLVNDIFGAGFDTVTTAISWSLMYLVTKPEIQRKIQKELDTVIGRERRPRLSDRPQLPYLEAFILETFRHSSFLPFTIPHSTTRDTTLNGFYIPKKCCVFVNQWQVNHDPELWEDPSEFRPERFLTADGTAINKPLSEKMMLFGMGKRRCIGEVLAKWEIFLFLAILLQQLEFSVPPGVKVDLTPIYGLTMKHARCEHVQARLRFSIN", "assay": "Human liver microsomes, caffeine N3-demethylation", "type": "biochemical", "settings": "pooled microsomes, 100 μM caffeine", "protocol": "(§1) Human liver tissues were obtained from the University of Chicago Distribution Center of […] (Liver Transplant Procurement and Distribution Service, University of Minnesota, Minneapolis, Minn.), Human Biologics Inc. (Phoenix, Ariz.) and the International Institute for the Advancement of Science (Exton, Pa.). The liver microsomes were prepared by differential centrifugation. Caffeine N3-demethylation (Tassaneeyakul W., Mohammed […]., Veronese M. E., Tukey R. H., Quattrochi […]., and Miners J. O. Caffeine as a probe for human cytochromes P450: Validation using cDNA-expression,immunoinhibition, and microsomal kinetic and inhibitor techniques. Pharmacogenetics, 1992;2:173-183), coumarin 7-hydroxylation ([…]. Metabolism of coumarin by rat, gerbil, and human liver microsomes. Xenobiotica, 1992;22:357-367), tolbutamide hydroxylation (Miners J. O., Smith K. J., Robson […]., Veronese M. E., and Birkett D. J. Tolbutamide hydroxylation by human liver microsomes: Kinetic characterization and relationship to other cytochrome P-450 dependent xenobiotic oxidations. Biochem. Pharmacol., 1988;37:1137-1144), racemic bufurolol 1'-hydroxylation ([…]., Gut […]., and Meyer U. A. […] Anal. […] S. Hydroxylation of chlorzoxazone as a specific probe for human liver cytochrome P-450 IIEI. Chem. Res. […] The reactions were initiated by the additions of 1 mM NADPH and terminated in ice. […]"}, "P450 2C19": {"target": "T3, P450 2C19 (Homo sapiens, UniProt P33261)", "T3 construct": "incubated with pooled human liver microsomes; from tissue; host or cells: pooled human liver microsomes", "T3 sequence (P33261 whole entry)": "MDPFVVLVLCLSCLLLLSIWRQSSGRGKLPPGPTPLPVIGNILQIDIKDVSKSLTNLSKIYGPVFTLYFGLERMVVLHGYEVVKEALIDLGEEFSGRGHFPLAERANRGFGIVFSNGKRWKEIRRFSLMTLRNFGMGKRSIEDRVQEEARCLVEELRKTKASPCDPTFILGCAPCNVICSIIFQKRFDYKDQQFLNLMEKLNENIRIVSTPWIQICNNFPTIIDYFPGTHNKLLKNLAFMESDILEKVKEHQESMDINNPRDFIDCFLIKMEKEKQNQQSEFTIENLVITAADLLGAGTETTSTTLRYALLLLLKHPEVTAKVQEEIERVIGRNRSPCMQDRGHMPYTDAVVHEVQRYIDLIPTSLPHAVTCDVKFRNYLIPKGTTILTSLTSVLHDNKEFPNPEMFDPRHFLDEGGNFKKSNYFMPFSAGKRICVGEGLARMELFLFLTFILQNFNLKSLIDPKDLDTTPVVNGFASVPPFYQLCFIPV", "assay": "Human liver microsomes, (S)-mephenytoin 4′-hydroxylation", "type": "biochemical", "settings": "pooled human liver microsomes, probe (S)-mephenytoin (50 μM), read-out: P450 2C19 activity inhibited", "protocol": "as §1"}, "P450 3A4 [2]": {"target": "T1, P450 3A4", "assay": "BG-mediated inactivation of P450 3A4 in a reconstituted system, testosterone 6β-hydroxylation activity"}, "P450 2A6": {"target": "T4, P450 2A6 (Homo sapiens, UniProt P11509)", "T4 construct": "Pooled human liver microsomes; from tissue; host or cells: human liver microsomes, pool of 6", "T4 sequence (P11509 1-494)": "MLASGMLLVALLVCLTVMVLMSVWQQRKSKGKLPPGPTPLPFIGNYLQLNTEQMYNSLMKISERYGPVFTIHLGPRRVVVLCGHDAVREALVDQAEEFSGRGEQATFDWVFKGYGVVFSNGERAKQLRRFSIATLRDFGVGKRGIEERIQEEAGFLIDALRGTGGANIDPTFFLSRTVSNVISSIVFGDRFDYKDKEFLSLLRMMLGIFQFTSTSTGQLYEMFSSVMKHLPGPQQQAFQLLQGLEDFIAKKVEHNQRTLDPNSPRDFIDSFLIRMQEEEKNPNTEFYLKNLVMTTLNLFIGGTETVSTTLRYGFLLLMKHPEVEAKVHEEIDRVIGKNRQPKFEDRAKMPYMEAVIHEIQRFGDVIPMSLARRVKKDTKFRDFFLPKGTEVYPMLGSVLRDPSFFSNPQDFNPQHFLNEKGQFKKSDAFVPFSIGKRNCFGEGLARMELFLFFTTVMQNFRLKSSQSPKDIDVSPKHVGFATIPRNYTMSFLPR", "assay": "Human liver microsomes, coumarin 7-hydroxylation", "type": "biochemical", "settings": "pooled microsomes, 4 μM coumarin", "protocol": "as §1"}, "P450 2C9": {"target": "T5, P450 2C9 (Homo sapiens, UniProt P11712)", "T5 construct": "Pooled human liver microsomes; from tissue; host or cells: human liver microsomes, pool of 6", "T5 sequence (P11712 whole entry)": "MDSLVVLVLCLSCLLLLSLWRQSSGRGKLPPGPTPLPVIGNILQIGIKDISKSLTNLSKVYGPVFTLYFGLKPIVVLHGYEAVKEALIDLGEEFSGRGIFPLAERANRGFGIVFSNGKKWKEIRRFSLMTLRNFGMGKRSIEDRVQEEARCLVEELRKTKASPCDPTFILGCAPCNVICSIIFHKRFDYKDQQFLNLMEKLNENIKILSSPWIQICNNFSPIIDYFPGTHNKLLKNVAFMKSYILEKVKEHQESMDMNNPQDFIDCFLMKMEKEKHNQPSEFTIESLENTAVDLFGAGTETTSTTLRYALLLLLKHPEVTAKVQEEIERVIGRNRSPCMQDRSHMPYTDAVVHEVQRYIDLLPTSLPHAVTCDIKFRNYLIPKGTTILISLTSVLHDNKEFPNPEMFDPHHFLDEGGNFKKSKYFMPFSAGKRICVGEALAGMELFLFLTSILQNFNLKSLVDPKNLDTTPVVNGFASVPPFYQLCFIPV", "assay": "Human liver microsomes, tolbutamide hydroxylation", "type": "biochemical", "settings": "pooled human liver microsomes", "protocol": "(§2) Human liver tissues were obtained from the University of Chicago Distribution Center of […] (Liver Transplant Procurement and Distribution Service, University of Minnesota, Minneapolis, Minn.), Human Biologics Inc. (Phoenix, Ariz.) and the International Institute for the Advancement of Science (Exton, Pa.). The liver microsomes were prepared by differential centrifugation. […] Anal. […] S. Hydroxylation of chlorzoxazone as a specific probe for human liver cytochrome P-450 IIEI. Chem. Res. […] The reactions were initiated by the additions of 1 mM NADPH and terminated in ice. […] A. Assay of mephenytoin metabolism in human liver microsomes by high-performance liquid chromatography. […] Experimental controls consisted of the complete incubation components without the addition of BG."}, "P450 3A4 [3]": {"target": "T1, P450 3A4", "assay": "P450 content by reduced-CO difference spectrum after incubation in the reconstituted system", "type": "biochemical", "set-up": "A full-length P450 3A4 cDNA (except for the deletion of codons 3-12 at the 5′-end); made in house; host or cells: E. coli MV1304 (pCW vector)", "settings": "50 μM BG, 15 minutes; for P450: 37° C.", "protocol": "Reactions with various concentrations of BG were initiated by addition of 1 mM NADPH, and terminated on ice. The incubations were performed at 37° C. for the time periods indicated. […] The spectra were recorded between 330 to 700 nm against the diluting buffer as reference on a […] spectrophotometer in the split beam mode."}, "P450 3A4 [4]": {"target": "T1, P450 3A4", "assay": "Human liver microsomes, testosterone 6β-hydroxylation", "type": "biochemical", "settings": "pooled human liver microsomes", "protocol": "as §2"}, "P450 2D6": {"target": "T6, P450 2D6 (Homo sapiens, UniProt P10635)", "T6 construct": "Pooled human liver microsomes; from tissue; host or cells: human liver microsomes, pool of 6", "T6 sequence (P10635 whole entry)": "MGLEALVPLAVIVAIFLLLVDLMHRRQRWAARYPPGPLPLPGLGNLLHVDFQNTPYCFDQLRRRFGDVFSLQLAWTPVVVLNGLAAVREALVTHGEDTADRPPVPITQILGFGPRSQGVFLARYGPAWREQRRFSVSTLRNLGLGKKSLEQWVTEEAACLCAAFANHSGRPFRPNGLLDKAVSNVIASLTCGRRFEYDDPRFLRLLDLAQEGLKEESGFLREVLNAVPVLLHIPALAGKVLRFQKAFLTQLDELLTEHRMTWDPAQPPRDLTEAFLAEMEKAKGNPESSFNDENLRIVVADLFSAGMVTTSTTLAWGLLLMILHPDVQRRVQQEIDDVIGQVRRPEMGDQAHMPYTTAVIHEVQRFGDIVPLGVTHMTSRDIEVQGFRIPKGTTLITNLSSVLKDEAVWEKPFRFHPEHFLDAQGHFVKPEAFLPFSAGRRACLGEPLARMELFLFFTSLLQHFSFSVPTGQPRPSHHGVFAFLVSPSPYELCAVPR", "assay": "Human liver microsomes, racemic bufurolol 1′-hydroxylation", "type": "biochemical", "settings": "pooled human liver microsomes", "protocol": "as §1"}, "P450 2E1": {"target": "T7, P450 2E1 (Homo sapiens, UniProt P05181)", "T7 construct": "Pooled human liver microsomes; from tissue; host or cells: human liver microsomes, pool of 6", "T7 sequence (P05181 whole entry)": "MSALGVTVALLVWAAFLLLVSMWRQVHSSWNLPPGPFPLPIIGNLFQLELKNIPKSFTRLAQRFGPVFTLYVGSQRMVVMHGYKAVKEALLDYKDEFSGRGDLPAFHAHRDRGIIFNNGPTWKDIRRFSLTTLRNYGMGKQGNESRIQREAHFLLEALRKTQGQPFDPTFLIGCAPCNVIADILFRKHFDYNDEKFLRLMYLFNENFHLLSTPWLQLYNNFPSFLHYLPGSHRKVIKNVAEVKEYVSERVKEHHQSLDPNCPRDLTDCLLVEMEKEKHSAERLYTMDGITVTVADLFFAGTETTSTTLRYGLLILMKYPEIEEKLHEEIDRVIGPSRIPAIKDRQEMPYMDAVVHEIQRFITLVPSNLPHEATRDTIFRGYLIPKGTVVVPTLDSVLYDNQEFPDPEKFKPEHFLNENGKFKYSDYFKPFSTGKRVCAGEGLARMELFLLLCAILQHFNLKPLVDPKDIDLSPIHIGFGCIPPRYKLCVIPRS", "assay": "Human liver microsomes, chlorzoxazone 6-hydroxylation", "type": "biochemical", "settings": "pooled human liver microsomes", "protocol": "as §1"}, "[5]": {"settings": "human, pH 7.5, probe testosterone (200 μM), 6β-hydroxylation"}}, "data": [{"smiles": "CC(C)=CCC/C(C)=C/COc1c2ccoc2cc2oc(=O)ccc12", "note": "[BG, (E)-4-[(3,7-dimethyl-2,6-octadienyl)oxy]-7H-furo[3,2-g][1]benzopyran-7-one]", "values": [{"measurement": "decrease of the amount of apoP450 3A4", "setting": "P450 3A4 [1]; 50 μM BG, reverse phase HPLC, vs −NADPH control", "value": "about 50%"}, {"measurement": "heme recovered", "setting": "P450 3A4 [1]; BG inactivated P450 3A4 sample", "value": "Approximately 90%"}, {"measurement": "reductase and cytochrome b5 protein recovered from the column", "setting": "P450 3A4 [1]; compared with −NADPH controls", "value": "~100", "unit": "%"}, {"measurement": "P450 1A2 activity in human liver microsomes", "setting": "P450 1A2", "value": "inhibited"}, {"measurement": "inhibition at 2 μM", "setting": "P450 2C19; 2 μM BG", "value": "~71", "unit": "%"}, {"measurement": "inhibition at 20 μM", "setting": "P450 2C19; 20 μM BG", "value": "~100", "unit": "%"}, {"measurement": "inactivation of testosterone 6β-hydroxylation activity", "setting": "P450 3A4 [2]; 2 μM BG with α-naphathoflavone 6 to 50 μM", "value": "about 55%"}, {"measurement": "loss of testosterone 6β-hydroxylation activity", "setting": "P450 3A4 [2]; 50 μM BG, with NADPH, 37° C., 15 minutes", "value": 90, "unit": "%"}, {"measurement": "Testosterone 6β-hydroxylation", "setting": "P450 3A4 [2]; BG+/NADPH+, 50 μM BG, 37° C., 15 minutes", "value": 0.8, "unit": "nmol/min/nmol"}, {"measurement": "Testosterone 6β-hydroxylation", "setting": "P450 3A4 [2]; BG+/NADPH−, 50 μM BG, 37° C., 15 minutes", "value": 2.9, "unit": "nmol/min/nmol"}, {"measurement": "KI (inactivation)", "setting": "P450 3A4 [2]; [5]", "value": 7.7, "unit": "µM"}, {"measurement": "inhibition at 50 μM", "setting": "P450 3A4 [2]; [5]", "value": "~60", "unit": "%"}, {"measurement": "inhibition at […]", "setting": "P450 3A4 [2]; [5]", "value": "~55", "unit": "%"}, {"measurement": "kinact", "setting": "P450 3A4 [2]; read-out: Kinactivation (maximal rate constant of inactivation)", "value": 0.005, "unit": "s⁻¹"}, {"measurement": "Kinactivation (maximal rate constant of inactivation)", "setting": "P450 3A4 [2]; reconstituted system", "value": 0.3, "unit": "min⁻¹"}, {"measurement": "P450 2A6 activity in human liver microsomes", "setting": "P450 2A6", "value": "inhibited"}, {"measurement": "IC50", "setting": "P450 2C9", "value": "~2.4", "unit": "µM"}, {"measurement": "decrease of P450 content (reduced-CO spectrum)", "setting": "P450 3A4 [3]; with NADPH", "value": "approximately 40%"}, {"measurement": "P450", "setting": "P450 3A4 [3]; BG+/NADPH+", "value": 0.27, "unit": "nmol/mL"}, {"measurement": "P450", "setting": "P450 3A4 [3]; BG+/NADPH−", "value": 0.47, "unit": "nmol/mL"}, {"measurement": "IC50", "setting": "P450 3A4 [4]", "value": "~4.6", "unit": "µM"}, {"measurement": "IC50", "setting": "P450 2D6", "value": "~3", "unit": "µM"}, {"measurement": "IC50", "setting": "P450 2E1", "value": "~3.9", "unit": "µM"}]}]}
